Measured values as given in PMC9016803, “Mitochondria-targeted half-sandwich iridium(III)-Cp*-arylimidazophenanthroline complexes as antiproliferative and bioimaging agents against triple negative breast cancer cells MDA-MB-468” (RSC Advances, 2022).

Assays:
CT-DNA = test: DNA binding by UV-visible absorption titration; set-up: species or system calf; details: for Change in absorbance: on addition of CT-DNA
Protocol: To design effective chemotherapeutic drugs, it is essential to explore the interactions of metal complexes with DNA. […] DNA base pairs such as purine (adenine and guanine) and pyrimidine (cytosine and thymine) analogues are responsible for electronic transitions. Upon the addition of CT-DNA in increasing concentration from 5 μM to 60 μM, we observed a hyperchromic shift in π–π* region and hypochromic shift at the MLCT region resulting in the appearance of an isosbestic point, which indicates the prevalence of […] interaction of the complex with DNA together with the intercalative mode of interaction (Fig. 6).
Electronic absorption spectroscopy was used to study the binding capacity of the complexes with calf-thymus DNA (Ct-DNA) and competitive binding assay as studied using ethidium bromide (EtBr) as quencher by fluorescence spectroscopy.
DNA binding assay was carried out by using complexes IrL5 in Tris-HCl buffer (5 mM Tris-HCl in water, pH 7.4) in aqueous medium. The concentration of Ct-DNA was calculated from its absorbance intensity at 260 nm and its known molar absorption coefficient value of 6600 M-1cm-1. Equal amount of DNA was added in both the sample and reference in cuvettes.
Titration was carried out by increasing concentration of CT-DNA. On the eve of each measurement, sample was equilibrated with CT-DNA for about 5 min and then absorbance of the complex was measured. The intrinsic DNA binding constant (K b) was calculated using the […]
[DNA] = [DNA] + 1 L L (i) […]
Where [DNA] is the concentration of DNA in the base pairs, εa is the apparent extinction coefficient observed for the complex, εf corresponds to the extinction coefficient of the complex in its free form, and εb refers to the extinction coefficient of the complex when fully bound to DNA. The resultant data were plotted using Origin Lab, version 8.5 to obtain the [DNA]/(ε a-εf) vs. [DNA] linear plot. The ratio of the slope to intercept from the linear fit gave the values of the intrinsic binding constants ( Kb).
UV and Fluorescence study […]
φ = φR × I × OD × η ⋯⋯⋯(ii)

MDA-MB-468 cells [1] = test: MTT in vitro cytotoxicity assay, triple negative breast cancer cells; type: cell-based; details: MDA-MB-468, MTT, 48 h
Protocol: The in vitro cytotoxicity of complexes IrL1–IrL5 and cisplatin were investigated using the typical 3-(4,5-dimethylthiazol-2-yl)-2,5-diphenyltetrazolium bromide (MTT) assay protocol against a panel of triple negative cancer cell line MDA-MB-468. The cells were initially incubated with the all test compounds at concentrations ranging from 0.5–50 μM for 48 h in vitro.
Cytotoxicity study of all the synthesized compounds against triple negative breast cancer cells MDA-MB-468 and immortalized human keratinocyte cell line HaCaT were done with a drug incubation period of 48 h by following standard procedure that were mentioned in ESI. ^† Preliminary studies were done to understand the mode of action of the complex to induce cytotoxicity using flow cytometric methods.
For doing the cell culture the cells were retained in DMEM media (Gibco), added with 10% fetal bovine serum (Himedia, India), 1% penicillin and streptomycin and 1% of Glutmax (Gibco, Thermo Scientific, USA) at 37°C in 5% CO2. When the cells attained 70%-80% confluency they were trypsinized using 0.25% trypsin-EDTA (Thermo Fisher Scientific, […]
In vitro cytotoxicity study was measured by standard MTT assay protocol.1 First the prepared complexes (IrL1-IrL5) were dissolved in 0.1% DMSO followed by dilution with DMEM medium. One cancer cell lines i.e. triple negative breast cancer cells (MDA-MB-468) and one normal cell line i.e. immortalized human keratinocyte cell line (HaCaT) were used for this assay. Approximately 1×10^4 cells per well were cultured in 100 μl of a growth medium in 96-well plates and then incubated under 5% CO2 atmosphere at 37°C temperature. Then the incubated cells were treated with different concentrations of the complexes in the volume of […]. The cisplatin was taken as standard positive control for this experiment. The Cells which were in the control wells, also engaged the same volume of medium containing 0.1% DMSO. After 48 h, the medium was superfluous and cell cultures were again incubated with 100 μL of MTT reagent (1 mg/ml) for 5 h at 37 °C. Then the resultant suspension was kept on micro vibrator for 10 min and the absorbance was recorded at λ = 570 nm in ELISA plate reader. The experiment was also performed in triplicate. The data were represented as the growth inhibition percentage i.e. % growth inhibition = 100 − [(AD × 100)/AB], where AD, measured absorbance in wells which contain samples and AB, measured absorbance for blank wells (cells with a medium and a vehicle). […]

[2] = n-Octanol/water partition coefficient, shake flask method; type: physicochemical
Protocol: Both hydrophilicity and lipophilicity studies were performed to determine the tumour-inhibiting potential of the metal complexes. These complexes were highly soluble in DMSO and moderately soluble in H2O, MeOH, EtOH and CH3CN. […] The lipophilicity of these complexes was determined by performing an n-octanol/water partition coefficient (log Po/w, where Po/w = the octanol/water partition coefficient) study using the shake flask method (Table 1).[24] The experimental log Po/w values of these complexes were determined to be in the range of 0.27–0.34 (Table 1). […] This change in the electrolytic behaviour of the complexes from 1 : 1 to 1 : 2 can be attributed to the dissociation of the Ir–Cl bond and subsequent aquation of the complexes. […]
n-Octanol–water partition coefficient (log P o/w)9
The log Po/w of the iridium complexes were adhering to shake flask method using the previously published procedure. A known amount of each complex (IrL1-IrL5) was suspended in water (pre-saturated with n-octanol) and shaken for 48 h on an orbital shaker.
To allow the phase separation, the solution was centrifuged for 10 min at 3000 rpm. To obtain the partition coefficient, different ratios (0.5: 1, 1: 1, and 2: 1) of the saturated solutions were shaken with pre-saturated n-octanol for 20 min on an orbital shaker and followed the same procedure. Aliquots of the aqueous and octanol layers were pipetted out separately and the absorbances were measured with UV-Vis spectrophotometer using proper dilution. Each set was performed in triplicate, concentration of the substances in each layer was calculated using the respective molar extinction coefficients and the partition coefficient (log P o/w) values were obtained from the ratio.

MDA-MB-468 cells [3] = test: Cell cycle analysis; type: cell-based; details: 5 μM
Protocol: The IrL1 complex exerted a G0/G1 cell cycle arrest at the highest tested concentration of 5 μM. The effects of various concentrations of IrL1 complex on the cell cycle of breast cancer cell line MDA-MB-468 cells were further explored by cell cycle analysis.

In the case of “[Iridium(III)-Cp*-2-(naphthalen-1-yl)-1H-imidazo[4,5-f][1,10]phenanthroline]PF6 [IrL1]”, the “Δε (% change in hypochromism or hyperchromism)” value (CT-DNA; λmax 250 nm, hyperchromism) is reported as 60%, the Change in absorbance (CT-DNA; λmax 250 nm) is reported as “Hyperchromism” and the “Δε (% change in hypochromism or hyperchromism)” value (CT-DNA; λmax 305 nm, hypochromism) is reported as 25%. For the same substance, the Change in absorbance (CT-DNA; λmax 305 nm) was “Hypochromism”, the IC50 (MDA-MB-468 cells [1]) was 3.67 µM and the “log P (n-octanol/water partition coefficient)” value [2] was 0.27 ± 0.07. The G0/G1 phase cells (MDA-MB-468 cells [3]) was 53.32%, the G2/M phase cells (MDA-MB-468 cells [3]) was roughly 18.37% and the S phase cells (MDA-MB-468 cells [3]) was roughly 28.32%.
